Test results reported in paper PMC12363935, “Unc-51 Like Kinase 3 (ULK3) is essential for autophagy and cell survival in multiple myeloma” (Research Square, 2025).

Tests used:
ULK1 = target: T1, ULK1 (Homo sapiens, UniProt O75385); experiment: Kinase profiling assay (Reaction Biology), 10-dose IC50, 10 μM ATP; assay type: biochemical
T1 construct: purchased Reaction Biology Corporation
T1 sequence (O75385 1-1050): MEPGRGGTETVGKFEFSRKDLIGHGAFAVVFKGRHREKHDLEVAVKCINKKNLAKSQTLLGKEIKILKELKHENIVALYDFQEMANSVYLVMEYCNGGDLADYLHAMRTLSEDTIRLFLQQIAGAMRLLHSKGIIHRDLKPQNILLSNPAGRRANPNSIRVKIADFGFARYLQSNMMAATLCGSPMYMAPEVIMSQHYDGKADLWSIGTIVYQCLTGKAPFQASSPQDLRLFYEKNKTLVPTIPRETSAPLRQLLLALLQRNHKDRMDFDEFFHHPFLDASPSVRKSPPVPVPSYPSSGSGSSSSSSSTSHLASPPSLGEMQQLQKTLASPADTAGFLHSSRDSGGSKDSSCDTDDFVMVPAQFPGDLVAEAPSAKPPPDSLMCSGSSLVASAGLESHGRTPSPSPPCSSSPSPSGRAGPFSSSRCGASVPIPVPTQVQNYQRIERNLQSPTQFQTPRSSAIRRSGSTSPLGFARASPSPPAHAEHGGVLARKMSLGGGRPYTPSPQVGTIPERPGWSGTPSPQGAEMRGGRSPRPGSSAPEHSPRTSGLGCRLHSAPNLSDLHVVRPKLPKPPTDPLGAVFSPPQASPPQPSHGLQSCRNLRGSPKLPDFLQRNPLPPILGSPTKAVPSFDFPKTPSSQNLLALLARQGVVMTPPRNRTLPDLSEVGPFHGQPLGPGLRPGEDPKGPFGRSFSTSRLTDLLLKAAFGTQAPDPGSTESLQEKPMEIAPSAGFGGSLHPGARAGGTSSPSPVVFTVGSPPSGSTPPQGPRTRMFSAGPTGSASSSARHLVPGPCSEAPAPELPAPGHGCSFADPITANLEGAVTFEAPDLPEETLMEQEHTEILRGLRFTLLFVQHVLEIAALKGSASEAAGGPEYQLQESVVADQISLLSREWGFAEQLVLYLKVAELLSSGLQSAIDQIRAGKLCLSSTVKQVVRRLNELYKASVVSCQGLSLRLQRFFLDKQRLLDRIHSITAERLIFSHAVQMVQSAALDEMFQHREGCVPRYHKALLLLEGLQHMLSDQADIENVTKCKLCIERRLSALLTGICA
Experimental: (§1) 310 and refinement were performed with COOT [14] and Phenix.Refine to obtain a clear electron
(§2) 311 density map (1Fo-Fc) for compound MA9-060, which was built into the structure near the end of
(§3) 312 iterative cycles of model building and refinement. Crystal parameters, data collection statistics and
(§4) 313 refinement statistics are summarized in Supplementary Fig. 4D and deposited in the protein
(§5) 314 databank with PDB code 8V1M.
(§6) 317 The compounds under investigation were tested by Reaction Biology Corporation against four
(§7) 318 specific kinases in this study (JAK2, ULK1, ULK2, ULK3). Each compound was provided as a
(§8) 319 10 mM stock solution. To facilitate dissolution, the compounds were subjected to gentle heating.
(§9) 320 Subsequent testing involved the evaluation of the compounds using a 10-dose IC50 mode,
(§10) Additionally, the control compound,
(§11) Throughout these experiments, reactions were conducted using a standardized concentration
(§12) 325 The data collected during these assays encompass raw data, % enzyme activity (relative to DMSO
(§13) 327 activities at the highest concentration of compounds were less than 65%. The IC50 summary,
(§14) 328 detailing the inhibitory concentrations of the compounds against the respective kinases, is
(§15) 331 Bromodomain profiling assay
(§16) 333 evaluated against Bromodomain 1 by Reaction Biology Corporation.
(§17) 334 The compounds were subjected to testing using a 10-dose IC50 singlet approach, involving a 3-
(§18) 335 fold serial dilution starting at 10 μM, specifically against BRD4-1. Additionally, as a benchmark,
(§19) 337 dilution starting at 10 μM.
(§20) 338 For ligand and detection purposes, the H4/4Ac ligand, representing the Histone H4 peptide (1-21)
(§21) 339 with acetylation at lysine residues K5, K8, K12, and K16, and tagged with Biotin, was utilized.

ULK2 = target: T2, ULK2 (Homo sapiens, UniProt Q8IYT8); experiment: as above; assay type: biochemical; conditions: NA = no activity
T2 construct: purchased Reaction Biology Corporation
T2 sequence (Q8IYT8 1-1036): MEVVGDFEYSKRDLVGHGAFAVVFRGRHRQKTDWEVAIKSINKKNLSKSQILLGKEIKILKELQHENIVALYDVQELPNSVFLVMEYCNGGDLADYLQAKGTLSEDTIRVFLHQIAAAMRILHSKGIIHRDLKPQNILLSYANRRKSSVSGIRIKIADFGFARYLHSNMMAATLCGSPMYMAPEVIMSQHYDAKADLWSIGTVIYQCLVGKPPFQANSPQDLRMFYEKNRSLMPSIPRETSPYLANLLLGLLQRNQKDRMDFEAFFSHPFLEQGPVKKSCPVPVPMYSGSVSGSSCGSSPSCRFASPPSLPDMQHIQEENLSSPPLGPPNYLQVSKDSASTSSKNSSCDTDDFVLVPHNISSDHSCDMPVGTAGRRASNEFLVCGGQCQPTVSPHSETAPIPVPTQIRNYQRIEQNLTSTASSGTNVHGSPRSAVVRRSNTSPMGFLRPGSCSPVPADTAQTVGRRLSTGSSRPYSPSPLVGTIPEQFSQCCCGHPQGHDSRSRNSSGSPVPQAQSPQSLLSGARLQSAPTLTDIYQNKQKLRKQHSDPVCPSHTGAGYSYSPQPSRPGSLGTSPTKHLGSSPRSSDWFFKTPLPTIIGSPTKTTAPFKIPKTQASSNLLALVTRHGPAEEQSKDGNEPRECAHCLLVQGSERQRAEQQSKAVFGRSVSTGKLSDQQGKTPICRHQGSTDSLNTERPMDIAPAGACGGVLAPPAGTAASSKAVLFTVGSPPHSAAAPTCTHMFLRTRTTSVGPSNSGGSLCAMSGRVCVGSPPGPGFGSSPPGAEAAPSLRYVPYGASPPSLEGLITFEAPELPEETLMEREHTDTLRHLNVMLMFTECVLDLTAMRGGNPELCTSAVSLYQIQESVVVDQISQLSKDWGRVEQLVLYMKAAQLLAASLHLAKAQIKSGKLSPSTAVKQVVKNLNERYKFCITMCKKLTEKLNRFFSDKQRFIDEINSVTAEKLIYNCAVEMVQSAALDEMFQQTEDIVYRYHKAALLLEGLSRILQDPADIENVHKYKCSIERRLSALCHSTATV
Experimental: as §1, §2, §3, §4, §5, §6, §7, §8, §9, §10, §11, §12, §13, §14, §15, §16, §17, §18, §19, §20, §21

Cc1cnc(Nc2ccc(C3CCN(C)CC3)c(F)c2)nc1Nc1ccc(Cl)c(NS(=O)(=O)C(C)(C)C)c1 [MA9060] showed an IC50 (ULK1) of 1.71 µM and an IC50 (ULK2) of 4300 nM.
